The results in this text go back to ChEMBL document CHEMBL4152325, “Tacripyrimidines, the first tacrine-dihydropyrimidine hybrids, as multi-target-directed ligands for Alzheimer's disease” (Eur J Med Chem, 2018).

Calls of active or inactive are those of the source. The rule behind the calls is not given here.

Data set [1] in a line: in vitro. To be noted: human, HepG2 cells.
Description: Cytotoxicity against human HepG2 cells assessed as cell viability at 100 uM after 24 hrs by CellTiter-Glo luminescence assay relative to control
Data set [2] is described as follows: in vitro. As to conditions: human, HepG2 cells. This is another data set of the same source.
Description: Cytotoxicity against human HepG2 cells assessed as cell viability at 300 uM after 24 hrs by CellTiter-Glo luminescence assay relative to control
A further data set deals with Cholinesterase (Homo sapiens, UniProt P06276). In words: Inhibition of recombinant human serum BChE using butyrylthiocholine as substrate pretreated for 20 mins followed by substrate addition by Ellman's method. For orientation: Ellman's reagent forms a yellow product with free thiols.
Chain of Cholinesterase (P06276 whole entry): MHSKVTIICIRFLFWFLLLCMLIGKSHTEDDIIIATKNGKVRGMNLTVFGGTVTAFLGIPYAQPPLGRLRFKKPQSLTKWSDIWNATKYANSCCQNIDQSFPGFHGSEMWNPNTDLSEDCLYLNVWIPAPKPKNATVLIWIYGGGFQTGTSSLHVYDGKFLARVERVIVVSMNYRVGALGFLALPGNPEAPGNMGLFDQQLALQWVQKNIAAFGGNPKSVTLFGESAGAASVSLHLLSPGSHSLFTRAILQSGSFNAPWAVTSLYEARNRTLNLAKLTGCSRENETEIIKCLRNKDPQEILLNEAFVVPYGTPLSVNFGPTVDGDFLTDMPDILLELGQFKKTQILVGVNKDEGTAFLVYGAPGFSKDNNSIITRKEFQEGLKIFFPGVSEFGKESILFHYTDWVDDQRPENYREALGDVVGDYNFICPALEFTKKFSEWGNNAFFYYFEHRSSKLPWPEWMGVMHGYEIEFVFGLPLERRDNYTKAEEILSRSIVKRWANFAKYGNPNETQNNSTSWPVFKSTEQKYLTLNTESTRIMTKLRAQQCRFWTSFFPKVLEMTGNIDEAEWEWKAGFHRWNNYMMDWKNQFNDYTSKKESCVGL
Data set [3] can be described thus: in vitro. As to conditions: human, HepG2 cells. This is another data set of the same source.
Description: Cytotoxicity against human HepG2 cells assessed as cell viability at 10 uM after 24 hrs by CellTiter-Glo luminescence assay relative to control
The target in data set [4] is T1, Acetylcholinesterase (Homo sapiens, UniProt P22303). The experiment in a line: Inhibition of recombinant human AChE expressed in HEK293 cells using acetylthiocholine as substrate pretreated for 20 mins followed by substrate addition by Ellman's method. Type of data set: cell-based.
T1 sequence (P22303 whole entry): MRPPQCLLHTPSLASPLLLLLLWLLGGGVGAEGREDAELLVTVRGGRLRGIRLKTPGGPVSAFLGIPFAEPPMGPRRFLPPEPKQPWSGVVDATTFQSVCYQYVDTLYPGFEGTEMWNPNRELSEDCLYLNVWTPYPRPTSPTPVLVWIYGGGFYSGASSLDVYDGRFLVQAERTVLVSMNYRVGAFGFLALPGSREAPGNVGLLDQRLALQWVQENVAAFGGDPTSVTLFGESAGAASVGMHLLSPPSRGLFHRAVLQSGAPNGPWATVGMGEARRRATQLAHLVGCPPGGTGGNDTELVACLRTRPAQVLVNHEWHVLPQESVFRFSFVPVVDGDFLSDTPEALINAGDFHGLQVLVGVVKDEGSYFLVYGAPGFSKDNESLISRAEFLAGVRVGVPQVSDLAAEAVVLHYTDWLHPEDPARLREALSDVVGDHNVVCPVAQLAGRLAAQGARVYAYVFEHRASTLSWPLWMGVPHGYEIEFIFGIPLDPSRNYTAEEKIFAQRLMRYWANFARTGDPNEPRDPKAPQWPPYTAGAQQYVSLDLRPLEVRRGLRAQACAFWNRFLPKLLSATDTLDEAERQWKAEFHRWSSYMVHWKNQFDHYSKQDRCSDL
Data set [5] has as its target T1, Acetylcholinesterase. The experiment in a line: Non-competitive inhibition of recombinant human AChE expressed in HEK293 cells assessed as enzyme-substrate-inhibitor complex using varying levels of acetylthiocholine as substrate by Dixon plot analysis.
Data set [6] concerns the target T1, Acetylcholinesterase. The experiment in a line: Non-competitive inhibition of recombinant human AChE expressed in HEK293 cells using varying levels of acetylthiocholine as substrate by Lineweaver-burk double reciprocal plot analysis. The format is cell-based.
The target in data set [7] is T1, Acetylcholinesterase. In words: Potency index, ratio of tacrine IC50 to test compound IC50 for recombinant human AChE expressed in HEK293 cells. The format is cell-based.
Data set [8] deals with Amyloid-beta precursor protein (Homo sapiens) (UniProt P05067). The experiment in a line: Inhibition of HFIP-pretreated amyloid beta (1 to 42 residues) (unknown origin) self aggregation at 50 uM after 24 hrs by ThT-based fluorometric method relative to control.
Chain of Amyloid-beta precursor protein (Homo sapiens) (P05067 whole entry, the tested form may be a part): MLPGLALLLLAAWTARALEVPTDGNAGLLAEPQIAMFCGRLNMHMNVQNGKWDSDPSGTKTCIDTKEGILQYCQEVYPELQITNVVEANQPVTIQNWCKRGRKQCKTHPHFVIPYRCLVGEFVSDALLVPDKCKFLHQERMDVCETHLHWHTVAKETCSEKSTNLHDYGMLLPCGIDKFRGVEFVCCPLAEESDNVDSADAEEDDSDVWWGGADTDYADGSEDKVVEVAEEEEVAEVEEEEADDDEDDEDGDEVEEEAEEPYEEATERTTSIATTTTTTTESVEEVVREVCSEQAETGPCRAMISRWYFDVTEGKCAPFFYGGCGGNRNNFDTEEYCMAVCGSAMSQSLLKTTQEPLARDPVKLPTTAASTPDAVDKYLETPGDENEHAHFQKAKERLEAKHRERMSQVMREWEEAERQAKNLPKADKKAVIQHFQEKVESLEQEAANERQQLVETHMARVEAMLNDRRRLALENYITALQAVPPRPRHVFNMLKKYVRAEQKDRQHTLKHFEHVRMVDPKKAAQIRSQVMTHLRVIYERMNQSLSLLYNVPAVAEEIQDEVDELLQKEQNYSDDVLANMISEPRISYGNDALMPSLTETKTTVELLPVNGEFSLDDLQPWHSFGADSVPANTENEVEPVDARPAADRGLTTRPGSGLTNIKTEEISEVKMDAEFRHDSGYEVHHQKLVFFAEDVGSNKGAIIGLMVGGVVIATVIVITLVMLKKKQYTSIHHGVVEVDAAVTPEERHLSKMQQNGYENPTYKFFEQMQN

For orientation: viability means a read-out of living cells in per cent, often relative to untreated cells. For orientation: IC50 means the point on the concentration scale where inhibition reaches its midpoint. With `Nc1c2c(nc3c1C(c1cccc([N+](=O)[O-])c1)NC(=S)N3)CCCC2` (stereo not drawn), the viability at 24 h, 100 µM in the data set “in vitro [1]” turned out to be 96.5%. Moreover, the viability at 24 h, 300 µM in “in vitro [2]” amounted to 82.7%. Moreover, the IC50 turned out to be 2.68 µM at Cholinesterase and 29.8 µM at Acetylcholinesterase [4]. Moreover, the viability at 24 h, 10 µM in “in vitro [3]” turned out to be 102%.
Taken in the same sequence, the figures for `CN(C)c1ccc(C2NC(=S)Nc3nc4c(c(N)c32)CCCC4)cc1` (stereo not drawn) were 82.5%, 78.9%, 154 µM, 24.1 µM and 87.3%.
As to `COc1ccc(C2NC(=S)Nc3nc4c(c(N)c32)CCCC4)cc1` (stereo not drawn), the viability at 24 h, 100 µM in the data set “in vitro [1]” was found to be 100%. Further, in “in vitro [2]”, the viability at 24 h, 300 µM was determined as 77.6%. For the same compound, the IC50 on Cholinesterase is 1.75 µM; on Acetylcholinesterase [4], 7.64 µM. In addition, the viability at 24 h, 10 µM in the data set “in vitro [3]” turned out to be 97.9%.
Regarding `Nc1c2c(nc3c1C(c1ccc4c(c1)OCO4)NC(=S)N3)CCCC2` (stereo not drawn), in the data set “in vitro [1]”, the viability at 24 h, 100 µM worked out at 91.2%. Besides, the viability at 24 h, 300 µM in the data set “in vitro [2]” turned out to be 64.1%. The 50% inhibitory concentration (IC50) on Cholinesterase was 37.5 µM; on Acetylcholinesterase [4], 8.18 µM. Also, the viability at 24 h, 10 µM in the data set “in vitro [3]” is 103%.
Taken in the same sequence, the figures for `Nc1c2c(nc3c1C(c1ccccc1)NC(=S)N3)CCCC2` (stereo not drawn) were 97.2%, 68.2%, 5.68 µM, 10.8 µM and 105%.
Taken in the same sequence, the figures for `Nc1c2c(nc3c1C(c1ccc(F)cc1)NC(=S)N3)CCCC2` (stereo not drawn) were 79.1%, 72.5%, 10 µM, 31 µM and 104%.
The term Ki denotes the equilibrium dissociation constant of an inhibitor or competing ligand from its target. For orientation: inhibition means the percentage by which the read-out fell short of the control. In the case of `Nc1c2c(nc3c1C(c1cccc(Br)c1)NC(=S)N3)CCCC2` (stereo not drawn), in the data set “in vitro [1]”, the viability at 24 h, 100 µM is 76.8%. Further, in the data set “in vitro [2]”, the viability at 24 h, 300 µM came to 62.3%. Also, the figures for the 50% inhibitory concentration (IC50) on Cholinesterase and at Acetylcholinesterase [4] were 1.27 µM and 0.0373 µM, respectively. Besides, at Acetylcholinesterase [5], the Ki amounted to 0.147 µM. For the same compound, in “in vitro [3]”, the viability at 24 h, 10 µM turned out to be 103%. Also, the inhibition entry at Acetylcholinesterase [6] is “Active”. The Ratio IC50 on Acetylcholinesterase [7] lay in the range of 9.4 to 10. The inhibition in data set [8] stood at 10%.
Consider `Cc1cccc(C2NC(=S)Nc3nc4c(c(N)c32)CCCC4)c1` (stereo not drawn), for which the viability at 24 h, 100 µM in the data set “in vitro [1]” came to 82.5%. The viability at 24 h, 300 µM in the data set “in vitro [2]” was 68.1%. For the same compound, the IC50 at Cholinesterase is 2.65 µM; at Acetylcholinesterase [4], 10.1 µM. The viability at 24 h, 10 µM in “in vitro [3]” was determined as 97.6%.
With `COc1cccc(C2NC(=S)Nc3nc4c(c(N)c32)CCCC4)c1` (stereo not drawn), in “in vitro [1]”, the viability at 24 h, 100 µM turned out to be 102%. The viability at 24 h, 300 µM in “in vitro [2]” came to 97.5%. The IC50 came out at 3.19 µM at Cholinesterase and 3.05 µM on Acetylcholinesterase [4]. At Acetylcholinesterase [5], the Ki is 3.88 µM. Further, the viability at 24 h, 10 µM in the data set “in vitro [3]” was found to be 100%. The inhibition entry on Acetylcholinesterase [6] was “Active”. Further, in [8], the inhibition was found to be 10%.
`COc1ccccc1C1NC(=S)Nc2nc3c(c(N)c21)CCCC3` (stereo not drawn): the viability at 24 h, 100 µM in the data set “in vitro [1]” is 81.1%. In addition, in “in vitro [2]”, the viability at 24 h, 300 µM amounted to 68.1%. Moreover, the IC50 on Cholinesterase came to 11.7 µM; on Acetylcholinesterase [4], 31.2 µM. Besides, the viability at 24 h, 10 µM in “in vitro [3]” was 98.1%.
`Cc1ccc(C2NC(=S)Nc3nc4c(c(N)c32)CCCC4)cc1` (stereo not drawn): the viability at 24 h, 100 µM in the data set “in vitro [1]” turned out to be 62%. Moreover, the viability at 24 h, 300 µM in “in vitro [2]” was found to be 45.2%. The half-inhibitory concentration (IC50) at Cholinesterase turned out to be 3.47 µM; at Acetylcholinesterase [4], 23.8 µM. Besides, the viability at 24 h, 10 µM in the data set “in vitro [3]” came to 90.6%.
Regarding `Nc1c2c(nc3c1C(c1ccc(Cl)cc1)NC(=S)N3)CCCC2` (stereo not drawn), the viability at 24 h, 100 µM in the data set “in vitro [1]” was 27.9%. Further, the viability at 24 h, 300 µM in the data set “in vitro [2]” was determined as 9%. Besides, the half-inhibitory concentration (IC50) at Cholinesterase worked out at 0.372 µM; at Acetylcholinesterase [4], 5.28 µM. Further, in “in vitro [3]”, the viability at 24 h, 10 µM came out at 80%. Moreover, in data set [8], the inhibition worked out at 10%.
